3 compounds from PMC5944384 (Chemical Science, 2018) can be followed below.

Data set [1] deals with 2008 ovarian adenocarcinoma cells (cisplatin sensitive). Nature of the data set: MTT cytotoxicity test, 72 h. The following applies: read-out: IC50 2008 ovary. The format is cell-based, human.
Data set [2] has as its system panel of human cancer cell lines (HCT-15, BCPAP, PSN-1, LoVo, 2008, C13*). Nature of the data set: MTT cytotoxicity test, average over the six cell lines. As to conditions: for IC50: read-out: Average IC50, average of one compound over the six cell lines. The format is cell-based.
Data set [3] deals with PSN-1 pancreatic cancer cells. Nature of the data set: MTT cytotoxicity test, 72 h. The class given is cell-based, human. As to conditions: read-out: IC50 PSN-1 pancreas. For orientation: Formazan colour is commonly taken as a measure of viable cells.
Data set [4] concerns HCT-15 colon cancer cells. Description: MTT cytotoxicity test, 72 h. The format is cell-based, human. As to conditions: read-out: IC50 HCT-15 colon.
In data set [5] the test system is C13* ovarian cancer cells (cisplatin resistant). Nature of the data set: MTT cytotoxicity test, 72 h. The format is cell-based, human. As to conditions: for Resistant factor (RF): IC50 resistant/parent line, C13*/2008; for IC50: read-out: IC50 C13* ovary, MTT, 72 h.
Data set [6] deals with LoVo colon cancer cells. Description: MTT cytotoxicity test, 72 h. The following applies: read-out: IC50 LoVo colon. The format is cell-based, human.
Data set [7] deals with BCPAP thyroid cancer cells. Nature of the data set: MTT cytotoxicity test, 72 h. The format is cell-based, human. As to conditions: read-out: IC50 BCPAP thyroid.
In data set [8] the test system is HEK293 cells. Nature of the data set: MTT cytotoxicity test in non-cancerous cells. The format is cell-based, human. As to conditions: for Selectivity index (SI) BCPAP: IC50 non-tumor (HEK293)/tumor cell line BCPAP; for Selectivity index (SI) LoVo: IC50 non-tumor (HEK293)/tumor cell line LoVo; for Selectivity index (SI) PSN-1: IC50 non-tumor (HEK293)/tumor cell line PSN-1; for IC50: read-out: IC50 HEK293, MTT, 72 h, non-cancerous cells.

In data set [9] the test system is PSN-1 3D spheroids. Nature of the data set: Cytotoxicity in 3D spheroid cultures, APH test. The following applies: for IC50: read-out: IC50 PSN-1 3D, spheroids, 72 hours.
Data set [10] has as its system PSN-1 cells. Nature of the data set: Mitochondrial membrane potential. The class given is cell-based, human. As to conditions: 24 h, 1 μM.
The test system of data set [11] is LoVo OXP colon cancer cells. Description: MTT cytotoxicity test, oxaliplatin resistant cells. The class given is cell-based, human. The following applies: IC50 resistant/parent line.
Data set [12] deals with PSN-1 cells. Nature of the data set: ROS production. The format is cell-based, human. As to conditions: 10 μM, compared with antimycin A.
Data set [13] in a line: Stability in phosphate buffer at 37 °C monitored by HPLC. The class given is physicochemical. The following applies: pH 7, HPLC, followed over days.
Data set [14] relates to HEK293 cells. Description: ROS production in non-cancerous cells. The class given is cell-based, human. The following applies: 10 µM.
Data set [15] concerns HEK293 cells. Description: Mitochondrial membrane potential in non-cancerous cells. The class given is cell-based, human. As to conditions: 24 h, 1 µM.
Data set [16] has as its target T1, COX-2 (Homo sapiens, UniProt P35354).
T1 sequence (P35354 18-604): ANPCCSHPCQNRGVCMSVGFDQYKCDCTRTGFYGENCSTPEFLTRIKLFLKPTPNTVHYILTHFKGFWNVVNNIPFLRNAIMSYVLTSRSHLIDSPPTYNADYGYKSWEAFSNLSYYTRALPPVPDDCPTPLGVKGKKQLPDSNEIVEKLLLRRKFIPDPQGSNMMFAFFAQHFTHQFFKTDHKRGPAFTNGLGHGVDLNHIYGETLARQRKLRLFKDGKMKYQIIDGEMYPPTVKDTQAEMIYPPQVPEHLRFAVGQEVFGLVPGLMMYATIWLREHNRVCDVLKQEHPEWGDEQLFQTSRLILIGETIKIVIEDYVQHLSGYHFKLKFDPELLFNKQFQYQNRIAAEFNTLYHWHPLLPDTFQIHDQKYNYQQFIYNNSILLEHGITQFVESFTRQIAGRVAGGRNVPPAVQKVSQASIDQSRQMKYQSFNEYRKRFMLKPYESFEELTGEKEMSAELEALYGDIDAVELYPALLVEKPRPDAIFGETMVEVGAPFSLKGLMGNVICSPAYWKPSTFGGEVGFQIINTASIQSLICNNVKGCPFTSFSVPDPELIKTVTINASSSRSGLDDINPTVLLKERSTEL
Nature of the data set: COX-2 inhibition in treated cells. As to conditions: PSN-1 cells, 24 h, 1 μM. The format is cell-based.

As to `O=C1[O][Pt]2([NH][C@@H]3CCCC[C@H]3[NH]2)[O]C1=O` [OXP, oxaliplatin], the IC50 in data set [1] came out at 1530 ± 880 nM; in [2] it was 3230 nM; in data set [3], 8250 ± 3420 nM; in data set [4], 1150 ± 430 nM; in [5] it was 3060 ± 1000 nM; in data set [6], 1010 ± 340 nM. In data set [7], the IC50 was 4370 ± 1070 nM. Further, the “Resistant factor (RF)” value in [5] worked out at 2.0.

`[NH2][Pt]([NH2])([Cl])[Cl]` [CDDP, Cisplatin]: the IC50 is 2220 ± 1020 nM in data set [1]; 19600 ± 2330 nM in data set [8]; 12500 nM in data set [2]; 18200 ± 3110 nM in [3]; 15300 ± 2630 nM in data set [4]; 22500 ± 3150 nM in data set [5]. The IC50 in data set [6] was found to be 9150 ± 2070 nM; in data set [7], 7380 ± 1530 nM; in [9], 52600 ± 3780 nM. Further, the “Selectivity index (SI) BCPAP” value in data set [8] is given as 2.6. Also, the “Selectivity index (SI) LoVo” value in data set [8] is given as 2.1. Besides, the “Selectivity index (SI) PSN-1” value in data set [8] is 1.1. Further, the “Resistant factor (RF)” value in data set [5] is 10.1.

As for `[NH2][Pt]([NH2])([Cl])([Cl])([O]C(=O)CCCc1ccccc1)[O]C(=O)C(Cl)Cl` [CPD, ctc-[Pt(NH3)2(PhB)(DCA)Cl2]], in [10], the “Cells with hypopolarized mitochondrial membrane potential” value is given as 25–30%. The IC50 in data set [1] was determined as 330 ± 40 nM; in data set [8], 1560 ± 220 nM; in data set [2], 370 nM; in data set [3], 100 ± 20 nM; in [4] it was 1060 ± 130 nM; in data set [5], 580 ± 60 nM. Besides, the IC50 stood at 19 ± 10 nM in [6], 110 ± 30 nM in data set [7] and 950 ± 1120 nM in data set [9]. For the same compound, the “Selectivity index (SI) BCPAP” value in data set [8] amounted to 14.2. For the same compound, the “Selectivity index (SI) LoVo” value in data set [8] is listed as 82.1. Besides, the “Selectivity index (SI) PSN-1” value in data set [8] was found to be 15.6. Further, the “Resistant factor (RF)” value is listed as under 2 in [11] and 1.8 in [5]. Besides, the “Average IC50, times lower than cisplatin” value in data set [2] (average over six cell lines) is on record as 34 fold. Also, in [2] (average over six cell lines), the “Average IC50, times lower than oxaliplatin” value worked out at 9 fold. Moreover, the “Average IC50, times more potent than CVD” value in [2] (average over six cell lines) came out at 3 fold. Moreover, in [12], the “Increase in cellular basal ROS production” value was “only slightly inferior to that elicited by antimycin A”. In addition, in data set [13], the “Stability in phosphate buffer solution” value was “stable”. In addition, the “Induction of cellular ROS production” value in data set [14] is “barely effective”. In addition, in [15], the “Effect on mitochondrial membrane potential” value was “barely effective”. Further, in data set [16], the COX-2 inhibition is 8.4%. Further, the “Times more active than cisplatin in PSN-1 3D spheroids” value in [9] (72 hours) is “more than 50 fold”.

By IC50 is commonly meant the concentration at which inhibition is half-maximal.
